# Experimental data from patent US20130112197A1, “OPERATING METHOD FOR AN AEROSOL DELIVERY DEVICE AND AEROSOL DELIVERY DEVICE” (PARI Pharma GmbH, priority 2010, published 2013).
# Experiment: clinical trial: nasal and paranasal aerosol deposition by gamma camera imaging
# Type: in vivo, human
# Text: The method of the clinical trial was: Sinus air ventilation, nasal and paranasal aerosol deposition as well as nasal clearance of aerosols delivered by different pulsating airflows, such as a combined mode in comparison to intermittent mode. This was studied in 12 healthy volunteers using gamma camera imaging with 81 mKr gas and 99 mTc-DTPA aerosol. Masking techniques were used to visualize and quantify nasal and sinus aerosol deposition and retention.
smiles,measurement,setting,value
O=C([O-])CN(CCN(CC(=O)[O-])CC(=O)[O-])CCN(CC(=O)[O-])CC(=O)[O-].[99Tc+4] [99 mTc-DTPA],total sinus deposition in % of the deposited activity,"12 healthy volunteers, maxillary and sphenoid sinuses, pulsating airflows",up to 24%
same,total sinus deposition in % of the deposited activity,"combined mode, proband 1, post FESS volunteer",14%
same,total sinus deposition in % of the deposited activity,"combined mode, proband 2, normal volunteer",6%
same,total sinus deposition in % of the deposited activity,"intermittent mode, proband 1, post FESS volunteer",24%
same,total sinus deposition in % of the deposited activity,"intermittent mode, proband 2, normal volunteer",0%
